According to US20250114361A1, “PYRAZOLOPYRIMIDINE COMPOUND AND PHARMACEUTICAL USE THEREOF” (Japan Tobacco Inc., priority 2022, published 2025):

Target: NLRP3 inflammasome (Homo sapiens (Human), UniProt Q96P20)
Experiment: NLRP3 inflammasome inhibitory activity: inhibition of IL-1β production in THP1-Null cells (PMA, LPS, Nigericin)
Type: cell-based
Details: for IC50: Nigericin 7.5 μmol/L
Procedure: The NLRP3 inflammasome inhibitory activity of test compounds were evaluated on the basis of the inhibitory activity of the IL-1β production in THP1-Null cells (Product Number: thp-null, InvivoGen). Cells were maintained for culture in RPMI-1640 media containing 10% (v/v) fetal bovine serum, 25 mmol/L HEPES, 100 U/mL penicillin, 100 μg/mL streptomycin, 100 μg/mL normocin, and 200 μg/mL hygromycin B (set at 37° C., 5% CO2/95% air).
Cells were suspended with media for assay containing 0.5 μmol/L PMA (RPMI-1640 media containing 10% (v/v) fetal bovine serum, 100 U/mL penicillin, and 100 μg/mL streptomycin), and the suspended cells were seeded on Corning (registered trademark) 384-well Flat Clear Bottom Black Polystyrene TC-treated Microplates (25,000 cells/25 μL/well), followed by incubation (set at 37° C., 5% CO2/95% air) overnight. The supernatant of the culture was removed, and thereto was added media for assay (25 μL/well) containing 1 μg/mL Lipopolysaccharides (Product Number: L2654, Sigma-Aldrich (registered trademark)). Then, the culture was further incubated for 3 hours (set at 37° C., 5% CO2/95% air). The supernatant of the culture was removed. Then, a vehicle solution prepared from Opti-MEM (trademark) medium (Product Number: 31985-070, Invitrogen) was added to blank-setting wells and control-setting wells (20 μL/well), followed by incubation for 15 minutes (set at 37° C., 5% CO2/95% air). A solution containing a test compound (20 μL/well) was added to test compound-setting wells. Further, Opti-MEM (trademark) medium containing Nigericin (Product Number: N7143, Sigma-Aldrich (registered trademark)) was added to the control-setting wells and test compound-setting wells (5 μL/well), followed by incubation for 1.5 hours (set at 37° C., 5% CO2/95% air). The final concentration of Nigericin was adjusted to be 7.5 μmol/L. 5 μL/well of Opti-MEM (trademark) medium was added to the blank-setting wells. The supernatant of the culture was cryonically stored (set at −20° C.) until measurement of IL-1β.
The amount of IL-1β in the culture supernatant was quantitated with AlphaLISA (registered trademark) Human IL-1β Detection Kit (Product Number: AL220C, Perkin Elmer). Fluorescence intensity was measured with a microplate reader EnSpier (Model number: 2300-00J, Perkin Elmer) or EnSight (Model number: HH34000000, Perkin Elmer) according to procedure manuals attached thereto. Inhibition rates of the test compound-setting wells were calculated on the basis of 100% for the blank-setting wells and 0% for the control-setting wells. IC50 values (i.e., 50% inhibitory concentrations) of the test compounds were calculated by logistic regression analysis.

Chain of NLRP3 inflammasome (Q96P20 whole entry): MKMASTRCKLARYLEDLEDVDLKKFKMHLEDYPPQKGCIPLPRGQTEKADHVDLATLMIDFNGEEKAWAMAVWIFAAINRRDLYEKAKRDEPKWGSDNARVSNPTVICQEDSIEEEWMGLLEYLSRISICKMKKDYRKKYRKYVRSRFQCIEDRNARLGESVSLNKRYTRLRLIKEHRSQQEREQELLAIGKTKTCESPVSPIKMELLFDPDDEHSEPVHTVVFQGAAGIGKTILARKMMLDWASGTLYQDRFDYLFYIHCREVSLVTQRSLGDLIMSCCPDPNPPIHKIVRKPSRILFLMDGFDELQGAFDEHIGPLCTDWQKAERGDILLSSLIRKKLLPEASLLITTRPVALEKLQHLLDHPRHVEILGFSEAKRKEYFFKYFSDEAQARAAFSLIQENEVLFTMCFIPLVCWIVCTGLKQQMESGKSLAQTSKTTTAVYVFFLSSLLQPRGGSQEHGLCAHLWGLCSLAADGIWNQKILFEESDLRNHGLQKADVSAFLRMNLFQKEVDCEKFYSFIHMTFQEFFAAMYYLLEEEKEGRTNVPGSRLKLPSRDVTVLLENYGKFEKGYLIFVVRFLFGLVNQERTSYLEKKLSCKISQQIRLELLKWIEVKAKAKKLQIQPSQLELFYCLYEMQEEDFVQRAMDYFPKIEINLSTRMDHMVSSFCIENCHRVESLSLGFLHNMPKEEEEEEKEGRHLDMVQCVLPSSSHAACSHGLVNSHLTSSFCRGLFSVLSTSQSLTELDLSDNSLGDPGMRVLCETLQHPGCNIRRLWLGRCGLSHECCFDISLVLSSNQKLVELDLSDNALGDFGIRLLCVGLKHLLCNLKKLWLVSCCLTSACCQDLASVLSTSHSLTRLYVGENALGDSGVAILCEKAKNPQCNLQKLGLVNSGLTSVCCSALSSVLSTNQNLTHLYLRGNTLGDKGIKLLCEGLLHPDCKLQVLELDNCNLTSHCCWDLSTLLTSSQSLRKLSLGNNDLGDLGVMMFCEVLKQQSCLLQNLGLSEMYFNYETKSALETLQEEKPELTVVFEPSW

Row | inhibition at 2.4 µM (at 2.4 μM) [%] | IC50 [nM] | SMILES
1 | – | 15 | Cc1cc(C2CC2)cc(C)c1-n1cc2c(=O)[nH]c(-c3ccn(C)n3)nc2n1 [Example 4, 2-(4-cyclopropyl-2,6-dimethylphenyl)-6-(1-methyl-1H-pyrazol-3-yl)-2,5-dihydro-4H-pyrazolo[3,4-d]pyrimidin-4-one]
2 | – | 50 | Cc1cn(C)nc1-c1nc2nn(-c3c(C)cc(C4CC4)cc3C)cc2c(=O)[nH]1 [Example 6]
3 | – | 18 | Cc1cc(Br)cc(C)c1-n1cc2c(=O)[nH]c(-c3cnn(C)c3)nc2n1 [Example 11]
4 | – | 7.8 | Cc1cc(Br)cc(C)c1-n1cc2c(=O)[nH]c(-c3ccncn3)nc2n1 [Example 12, 2-(4-bromo-2,6-dimethylphenyl)-6-(pyrimidine-4-yl)-2,5-dihydro-4H-pyrazolo[3,4-d]pyrimidin-4-one]
5 | – | 29 | Cc1cc(C2CC2)cc(C)c1-n1cc2c(=O)[nH]c(-c3cc[nH]n3)nc2n1 [Example 13]
6 | – | 15 | Cc1cc(Br)cc(C)c1-n1cc2c(=O)[nH]c(-c3ccnnc3)nc2n1 [Example 15]
7 | – | 55 | Cc1cc(C2CC2)cc(C)c1-n1cc2c(=O)[nH]c(-c3ccn(C(F)F)n3)nc2n1 [Example 18]
8 | – | 62 | Cc1cc(C2CC2)cc(C)c1-n1cc2c(=O)[nH]c(-c3ccn(C4COC4)n3)nc2n1 [Example 19]
9 | – | 23 | COCCn1ccc(-c2nc3nn(-c4c(C)cc(C5CC5)cc4C)cc3c(=O)[nH]2)n1 [Example 20]
10 | – | 68 | Cc1cc(Br)cc(C)c1-n1cc2c(=O)[nH]c(-c3cnccn3)nc2n1 [Example 22]
11 | – | 22 | Cc1cc(Br)cc(C)c1-n1cc2c(=O)[nH]c(-c3cccnn3)nc2n1 [Example 23]
12 | – | 12 | Cc1cc(C2CC2)cc(C)c1-n1cc2c(=O)[nH]c(-c3cn(C)nn3)nc2n1 [Example 26]
13 | – | 11 | Cc1cc(C2CC2)cc(C)c1-n1cc2c(=O)[nH]c(-c3ccnnc3)nc2n1 [Example 28]

Second part, the molecule before the results:

Row | SMILES | inhibition at 2.4 µM (at 2.4 μM) [%] | IC50 [nM]
14 | Cc1cc(C2(F)CC2(Cl)Cl)cc(C)c1-n1cc2c(=O)[nH]c(-c3ccn(C)n3)nc2n1 (racemic) [Example 45] | 34 | –
15 | Cc1ccccc1-n1cc2c(=O)[nH]c(-c3ccn(C)n3)nc2n1 [Example 1] | – | 3800
16 | COc1cc(C)c(-n2cc3c(=O)[nH]c(-c4ccn(C)n4)nc3n2)c(C)c1 [Example 2] | – | 64
17 | COc1cc(C)c(-n2cc3c(=O)[nH]c(-c4cnn(C)c4)nc3n2)c(C)c1 [Example 3] | – | 110
18 | Cc1cc(C2CC2)cc(C)c1-n1cc2c(=O)[nH]c(-c3ccnn3C)nc2n1 [Example 5] | – | 23
19 | Cc1cc(C(C)(F)F)cc(C)c1-n1cc2c(=O)[nH]c(-c3ccn(C)n3)nc2n1 [Example 8, 2-{4-(1,1-difluoroethyl)-2,6-dimethylphenyl}-6-(1-methyl-1H-pyrazol-3-yl)-2,5-dihydro-4H-pyrazolo[3,4-d]pyrimidin-4-one] | – | 33
20 | Cc1cc(OC(F)F)cc(C)c1-n1cc2c(=O)[nH]c(-c3ccn(C)n3)nc2n1 [Example 9] | – | 49
21 | Cc1cc(Br)cc(C)c1-n1cc2c(=O)[nH]c(-c3ccn(C)n3)nc2n1 [Example 10] | – | 20
22 | Cc1nnc(-c2nc3nn(-c4c(C)cc(Br)cc4C)cc3c(=O)[nH]2)o1 [Example 14] | – | 390
23 | COCCn1ccc(-c2nc3nn(-c4c(C)cc(Br)cc4C)cc3c(=O)[nH]2)n1 [Example 16] | – | 47
24 | COCCn1nccc1-c1nc2nn(-c3c(C)cc(Br)cc3C)cc2c(=O)[nH]1 [Example 17] | – | 220
25 | Cc1cc(Br)cc(C)c1-n1cc2c(=O)[nH]c(-c3cn(C)nn3)nc2n1 [Example 21] | – | 13
26 | Cc1ncc(-c2nc3nn(-c4c(C)cc(Br)cc4C)cc3c(=O)[nH]2)o1 [Example 24] | – | 53
27 | Cc1cc(-c2nc3nn(-c4c(C)cc(Br)cc4C)cc3c(=O)[nH]2)no1 [Example 25] | – | 15
28 | Cc1cc(OC(F)F)cc(C)c1-n1cc2c(=O)[nH]c(-c3cccnn3)nc2n1 [Example 27] | – | 62
29 | Cc1cc(C(F)(F)F)cc(C)c1-n1cc2c(=O)[nH]c(-c3ccn(C)n3)nc2n1 [Example 29] | – | 69
